Source: US20220125051A1, “PRE-HARVEST DESICCATION METHOD” (SYNGENTA CROP PROTECTION AG, priority 2019, published 2022)
Structures can show the parent of a compound that is named as a salt. Where two headings read alike, the source gives them in different places.

What was measured:
Experiment in all cases: Post-emergence efficacy, Method A
Format in all cases: in vivo
[1] = system: Chenopodium album (CHEAL); conditions: Chenopodium album, post-emergence, 312 h, evaluated after 13 days
Method: (§1) Seeds of a variety of test species were sown in standard soil in pots. After cultivation for 14 days (post-emergence) under controlled conditions in a glasshouse (at 24/16° C., day/night; 14 hours light; 65% humidity), the plants were sprayed with an aqueous spray solution derived from the dissolution of the technical active ingredient formula (I) in a small amount of acetone and a special solvent and emulsifier mixture referred to as IF50 (11.12% Emulsogen EL360 TM+44.44% N-methylpyrrolidone+44.44% Dowanol DPM glycol ether), to create a 50 g/I solution which was then diluted to required concentration using 0.25% or 1% Empicol ESC70 (Sodium lauryl ether sulphate)+1% ammonium sulphate as diluent. The test plants were then grown in a glasshouse under controlled conditions (at 24/16° C., day/night; 14 hours light; 65% humidity) and watered twice daily. After 13 days the test was evaluated (100=total damage to plant; 0=no damage to plant).
(§2) Ipomoea hederacea (IPOHE), Euphorbia heterophylla (EPHHL), Chenopodium album (CHEAL), Amaranthus palmeri (AMAPA), Lolium perenne (LOLPE), Digitaria sanguinalis (DIGSA), Eleusine indica (ELEIN), Echinochloa crus-galli (ECHCG), Setaria faberi (SETFA)

[2] = system: Euphorbia heterophylla (EPHHL); conditions: Euphorbia heterophylla, post-emergence, 312 h, evaluated after 13 days
Method: as §1, §2

[3] = system: Setaria faberi (SETFA); conditions: Setaria faberi, post-emergence, 312 h, evaluated after 13 days
Method: as §1, §2

[4] = system: Eleusine indica (ELEIN); conditions: Eleusine indica, post-emergence, 312 h, evaluated after 13 days
Method: as §1, §2

[5] = system: Amaranthus palmeri (AMAPA); conditions: Amaranthus palmeri, post-emergence, 312 h, evaluated after 13 days
Method: as §1, §2

[6] = system: Lolium perenne (LOLPE); conditions: Lolium perenne, post-emergence, 312 h, evaluated after 13 days
Method: as §1, §2

[7] = system: Echinochloa crus-galli (ECHCG); conditions: Echinochloa crus-galli, post-emergence, 312 h, evaluated after 13 days
Method: as §1, §2

[8] = system: Digitaria sanguinalis (DIGSA); conditions: Digitaria sanguinalis, post-emergence, 312 h, evaluated after 13 days
Method: as §1, §2

[9] = system: Ipomoea hederacea (IPOHE); conditions: Ipomoea hederacea, post-emergence, 312 h, evaluated after 13 days
Method: as §1, §2

[10] = Application rate 500 g/Ha, 100=total damage to plant, 0=no damage to plant, read-out: Control of weed species after post-emergence application, CHEAL
[11] = Application rate 500 g/Ha, 100=total damage to plant, 0=no damage to plant, read-out: Control of weed species after post-emergence application, EPHHL
[12] = Application rate 500 g/Ha, 100=total damage to plant, 0=no damage to plant, read-out: Control of weed species after post-emergence application, SETFA
[13] = Application rate 500 g/Ha, 100=total damage to plant, 0=no damage to plant, read-out: Control of weed species after post-emergence application, ELEIN
[14] = Application rate 500 g/Ha, 100=total damage to plant, 0=no damage to plant, read-out: Control of weed species after post-emergence application, AMAPA
[15] = Application rate 500 g/Ha, 100=total damage to plant, 0=no damage to plant, read-out: Control of weed species after post-emergence application, LOLPE
[16] = Application rate 500 g/Ha, 100=total damage to plant, 0=no damage to plant, read-out: Control of weed species after post-emergence application, ECHCG
[17] = Application rate 500 g/Ha, 100=total damage to plant, 0=no damage to plant, read-out: Control of weed species after post-emergence application, DIGSA
[18] = Application rate 500 g/Ha, 100=total damage to plant, 0=no damage to plant, read-out: Control of weed species after post-emergence application, IPOHE
[19] = Application Rate 500 g/Ha, Method A, read-out: Control of weed species after post-emergence application, CHEAL (100=total damage to plant; 0=no damage to plant)
[20] = Application Rate 500 g/Ha, Method A, read-out: Control of weed species after post-emergence application, EPHHL (100=total damage to plant; 0=no damage to plant)
[21] = Application Rate 500 g/Ha, Method A, read-out: Control of weed species after post-emergence application, SETFA (100=total damage to plant; 0=no damage to plant)
[22] = Application Rate 500 g/Ha, Method A, read-out: Control of weed species after post-emergence application, ELEIN (100=total damage to plant; 0=no damage to plant)
[23] = Application Rate 500 g/Ha, Method A, read-out: Control of weed species after post-emergence application, AMAPA (100=total damage to plant; 0=no damage to plant)
[24] = Application Rate 500 g/Ha, Method A, read-out: Control of weed species after post-emergence application, LOLPE (100=total damage to plant; 0=no damage to plant)
[25] = Application Rate 500 g/Ha, Method A, read-out: Control of weed species after post-emergence application, ECHCG (100=total damage to plant; 0=no damage to plant)
[26] = Application Rate 500 g/Ha, Method A, read-out: Control of weed species after post-emergence application, DIGSA (100=total damage to plant; 0=no damage to plant)
[27] = Application Rate 500 g/Ha, Method A, read-out: Control of weed species after post-emergence application, IPOHE (100=total damage to plant; 0=no damage to plant)

SMILES	pest or weed control at 500 g/ha [1, 10] [%]	pest or weed control at 500 g/ha [2, 11] [%]	pest or weed control at 500 g/ha [3, 12] [%]	pest or weed control at 500 g/ha [4, 13] [%]	pest or weed control at 500 g/ha [5, 14] [%]	pest or weed control at 500 g/ha [6, 15] [%]	pest or weed control at 500 g/ha [7, 16] [%]	pest or weed control at 500 g/ha [8, 17] [%]	pest or weed control at 500 g/ha [9, 18] [%]	pest or weed control at 500 g/ha [1, 19] [%]	pest or weed control at 500 g/ha [2, 20] [%]	pest or weed control at 500 g/ha [3, 21] [%]	pest or weed control at 500 g/ha [4, 22] [%]	pest or weed control at 500 g/ha [5, 23] [%]	pest or weed control at 500 g/ha [6, 24] [%]	pest or weed control at 500 g/ha [7, 25] [%]	pest or weed control at 500 g/ha [8, 26] [%]	pest or weed control at 500 g/ha [9, 27] [%]
O=C(O)CC[n+]1ccc(-c2ncc(F)cc2F)cn1 [Compound A144]	10	20	20	20	20	10	20	30	10									
O=S(=O)([O-])OCC[n+]1ccc(-c2ncccn2)cn1 [Compound A194, 2-(4-pyrimidin-2-ylpyridazin-1-ium-1-yl)ethyl sulfate]										70	70	50	90	100	50	70	50	60
O=C(O)CC[n+]1ccc(-c2cc(C(F)(F)F)ncn2)cn1 [Compound A119]	100	70	40	30	100	30	30	40	50									
O=S(=O)([O-])CC[n+]1ccc(-c2ncccc2Cl)cn1 [Compound A141]	60	20	50	60	100	30	50	40	30									
COc1cc(C)nc(-c2cc[n+](CCC(=O)[O-])nc2)n1 [Compound A105]	20	50	90	20	90	50	40	60	0									
Nc1cc(-c2cc[n+](CCS(=O)(=O)[O-])nc2)ncn1 [Compound A164]										80	90	50	80	100	40	30	30	40
OCCC[n+]1ccc(-c2ncccn2)cn1 [Compound A206]										90	60	10	10	60	0	20	20	20
CCOC(=O)CC[n+]1ccc(-c2ncccn2)cn1 [Compound A82]	80	40	60	60	70	0	30	30	20									
O=C(O)CC[n+]1ccc(-c2cncc(C(F)(F)F)n2)cn1 [Compound A120]	70	50	40	30	90	20	40	40	10									
COc1nc(-c2cc[n+](CCC(=O)[O-])nc2)ncc1C [Compound A106]	20	20	60	80	80	60	50	60	10									
O=S(=O)([O-])CC[n+]1ccc(-c2cnc(C(F)(F)F)cn2)cn1 [Compound A112]	100	80	70	50	100	40	40	40	40									
NC(=O)c1cnc(-c2cc[n+](CCC(=O)O)nc2)cn1 [Compound A202, 3-[4-(5-carbamoylpyrazin-2-yl)pyridazin-1-ium-1-yl]propanoic acid 2,2,2-trifluoroacetate]										90	100	70	20	100	70	80	60	60
O=S(=O)([O-])CC[n+]1ccc(-c2ccc(F)cn2)cn1 [Compound A72]	40	70	40	30	60	20	40	30	40									
O=S(=O)([O-])CCC[n+]1ccc(-c2cnc(Cl)cn2)cn1 [Compound A79]	30	10	10	20	10	0	10	20	0									
